Reference: patent US20240108740A1, “THERAPEUTIC COMPOSITIONS INCLUDING SPN10 AND USES THEREOF” (Stealth BioTherapeutics Inc., priority 2022, published 2024)
Residues, ends and D or L forms follow the SMILES beside them.

How the values were obtained:
[1] = system: mouse peritoneal macrophages; assay: Example 1: oxLDL-induced CD36 expression and foam cell formation; type: cell-based
Protocol: Other controls will include CD36 expression from mouse heart (H) and macrophages obtained from CD36 knockout mice (KO). The amount of CD36 protein will be normalized to β-actin.
Incubation of macrophages with oxLDL for 48 hours is also anticipated to increase foam cell formation. Foam cell will be visualized by oil red O, which stains lipid droplets red.
Incubation of macrophages with oxLDL is anticipated to increase the percentage of apoptotic cells.

Sprague Dawley rats = assay: Example 51: burn-induced hypermetabolism and UCP-1 expression in brown adipose tissue; type: in vivo, rat
Description: Methods. Sprague Dawley rats will be randomly divided into the following groups; sham (S), sham with saline vehicle (SSal), sham with peptide conjugate-treatment (SC), sham with aromatic-cationic peptides (SC2), sham with SPN10(s) (SC3), sham with SPN10(s)+aromatic-cationic peptides (SC4), burn with saline vehicle (BSal), burn with peptide conjugate-treatment (BC), burn with aromatic-cationic peptides (BC2), burn with SPN10(s) (BC3) and burn with SPN10(s)+aromatic-cationic peptides (BC4). The dorsal aspect of burn subjects will be immersed into 100° C. water for 12 seconds to produce third degree 30% TBSA burns under general anesthesia. Sham burn will be produced by immersion in lukewarm water. Subjects will receive 40 mL/kg intraperitoneal saline injection for the resuscitation following the injury. A venous catheter will be placed surgically into the right jugular vein subsequent to sham or burn injury. […] Indirect calorimetry will be performed for 24 hours at 6 days after burn injury in a TSE Indirect Calorimetry System (TSE Co., Germany), and VO2, VCO2 and energy expenditure will be recorded every six minutes. Interscapullar brown adipose tissue will be collected after the indirect calorimetry, and UCP-1 expression in the brown adipose tissue will be evaluated by Western blot.

[2] = system: Isolated guinea pig hearts; assay: Example 6: isolated hearts, 18 hours cold ischemic storage and warm reperfusion
Protocol: Isolated guinea pig hearts will be perfused with St. Thomas solution alone or St. Thomas solution containing peptide conjugates (1-100 nM), aromatic-cationic peptides (e.g., an equivalent molar dose of aromatic-cationic peptide based on the concentration of the aromatic-cationic peptide administered in the peptide conjugate treatment group), SPN10(s) (e.g., an equivalent molar dose of SPN10 based on the concentration of SPN10 administered in the peptide conjugate treatment group), or SPN10(s) in combination with aromatic-cationic peptides (e.g., an equivalent molar dose of SPN10 based on the concentration of SPN10 administered in the peptide conjugate treatment group and an equivalent molar dose of aromatic-cationic peptide based on the concentration of aromatic-cationic peptide administered in the peptide conjugate treatment group) for 3 minutes and then stored in the same solution at 4° C. for 18 hours. After ischemic storage, hearts will be re-perfused with 34° C. Krebs-Henseleit solution for 90 min. Hearts freshly isolated from guinea pigs will be used as controls.
The hearts will be fixed in paraffin and sliced for immunostaining with an anti-CD36 rabbit polyclonal antibody. It is anticipated that the sections from a representative heart stored in St. Thomas solution for 18 hours at 4° C. will show increased CD36 staining compared to freshly isolated controls.
It is also anticipated that there will be a decrease in lipid peroxidation in the hearts treated with peptide conjugates, aromatic-cationic peptides, or SPN10(s) (with or without aromatic-cationic peptides). […]

N=C(N)NCCC[C@H](NC(=O)[C@@H](N)Cc1c[nH]c2ccccc12)C(=O)N[C@@H](Cc1c[nH]c2ccccc12)C(=O)N[C@@H](CCCCN)C(N)=O [SPN10, H-L-Trp-L-Arg-L-Trp-L-Lys-NH2] (H-WRWK-NH2)
percentage of apoptotic cells induced by oxLDL [1]: significantly reduce the percentage of apoptotic cells | up-regulation of CD36 protein levels by oxLDL ([1]; 25 μg/mL oxLDL, 48 hours): significantly inhibit the up-regulation of CD36 protein levels | CD36 protein levels (western blot) ([1]; compared to vehicle control (V)): significantly reduce CD36 protein levels | oxLDL-induced up-regulation of CD36 mRNA ([1]; oxLDL 50 μg/mL, 48 hours): abolish the up-regulation of CD36 | oxLDL-induced foam cell formation (oil red O) ([1]; oxLDL, 48 hours): prevent oxLDL-induced foam cell formation | UCP-1 levels in brown adipose tissue (Western blot) (Sprague Dawley rats; burn groups BC, BC2, BC3, BC4 vs BSal): lower than in the BSal group | increase in VO2, VCO2, and energy expenditure after burn (Sprague Dawley rats; infused for 7 days): significantly attenuate this effect | coronary blood flow after cold ischemic storage and warm reperfusion [2]: significant improvement of coronary blood flow | HNE staining in stored hearts ([2]; 18 hours cold ischemia, 90 minutes reperfusion): reduced | CD36 staining in stored hearts ([2]; St. Thomas solution, 18 hours, 4° C.): significantly reduced
